Target: T1, α2-adrenoceptors (Rattus norvegicus, UniProt P22909)
T1 construct: isolated rat-brain synaptic membrane fragments; from tissue; host or cells: rat brain, synaptic membrane fragments
T1 sequence (P22909 1-465): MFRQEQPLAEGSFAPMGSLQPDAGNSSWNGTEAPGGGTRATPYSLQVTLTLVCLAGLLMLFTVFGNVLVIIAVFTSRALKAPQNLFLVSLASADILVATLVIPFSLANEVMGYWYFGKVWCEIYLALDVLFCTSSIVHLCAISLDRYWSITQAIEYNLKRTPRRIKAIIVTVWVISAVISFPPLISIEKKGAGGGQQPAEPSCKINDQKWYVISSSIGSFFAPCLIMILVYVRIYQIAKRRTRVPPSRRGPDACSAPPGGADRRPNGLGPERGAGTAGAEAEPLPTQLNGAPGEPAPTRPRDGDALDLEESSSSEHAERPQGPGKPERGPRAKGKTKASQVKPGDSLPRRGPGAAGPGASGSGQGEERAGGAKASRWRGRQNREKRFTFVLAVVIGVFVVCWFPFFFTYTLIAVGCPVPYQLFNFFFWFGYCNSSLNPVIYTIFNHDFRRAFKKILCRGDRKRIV
Experiment: inhibition of [3H]-clonidine binding to isolated rat-brain synaptic membrane fragments
Conditions: from IC50 by Cheng-Prusoff equation
From the text: Blockade of presynaptic α2 -adrenoceptors on noradrenergic neurones effects an increase in intrasynaptic noradrenaline, and thus in the central nervous system could be expected to have an antidepressant effect. [^3 H]-Clonidine binds to α2 -adrenoceptor sites and inhibition of this binding correlates with the blockade of α2 -adrenoceptors. In vitro inhibition by some of the present compounds of the binding of [^3 H]-clonidine to isolated rat-brain synaptic membrane fragments was therefore determined to provide an indication of antidepressant activity. This was carried out using standard biochemical binding study techniques, by the method of Maggi et al, Eur. J. Pham. 1980, 61, 91. IC50 values were obtained from log [dose] against % inhibition curves; Ki values were determined using the Cheng-Prusoff equation.

| SMILES | Ki |
| --- | --- |
| CN1CCN2c3ccccc3Cc3cccc4c3[C@@H]2[C@H]1C4 (relative stereo) [Example I, trans-12-Methyl-1,10,11,12,12a,12b-hexahydro-5H-9b,12-diazabenzo[5,6]cyclohepta[1,2,3,4-def]fluorene] | 88 nM |
| CN1CCN2c3ccccc3Cc3cccc4c3[C@@H]2[C@H]1CC4 (relative stereo) [Example II, trans-13-methyl-1,2,6,11,12,13,13a,13b-octahydro-10b13-diazabenzo[gh]pleiadene] | 169 nM |

Source: US4504480A, “Pentacyclic compounds” (Beecham Group p.l.c., priority 1982, dated 1985)
